In ChEMBL document CHEMBL1144118, “New antimycobacterial saponin from Colubrina retusa” (1999):
≈ marks a conversion by molar mass, not a printed value. Calls of active or inactive are those of the source. No cut-off for these calls is given here.

System: Mycobacterium intracellulare
Assay: Antimycobacterial activity against Mycobacterium intracellular ATCC 23068 after 48 hrs
Type: functional
Details: for MIC: ATCC 23068, 48 h

Structure (SMILES) | Activity | MIC [µg/mL]
CC(C)=C[C@H]1C[C@](C)(O)[C@@H]2[C@H]3CC[C@@H]4[C@@]5(C)CC[C@H](O[C@@H]6OC[C@H](O)[C@H](O[C@@H]7O[C@H](CO)[C@@H](O)[C@H](O)[C@H]7O)[C@H]6O[C@@H]6O[C@@H](CO)[C@H](O)[C@H]6O)C(C)(C)[C@@H]5CC[C@@]4(C)[C@@]34CO[C@@]2(C4)O1 | inactive | –
CO[C@H]1/C=C/O[C@@]2(C)Oc3c(C)c(O)c4c(O)c(c(/C=N/N5CCN(C)CC5)c(O)c4c3C2=O)NC(=O)/C(C)=C\C=C\[C@H](C)[C@H](O)[C@@H](C)[C@@H](O)[C@@H](C)[C@H](OC(C)=O)[C@@H]1C [RIFAMPIN] | – | 0.3 (≈ 0.365 µM)
CC(C)=C[C@H]1C[C@](C)(O)[C@@H]2[C@H]3CC[C@@H]4[C@@]5(C)CC[C@H](O[C@@H]6OC[C@H](O)[C@H](O[C@@H]7O[C@H](CO)[C@@H](O)[C@H](O)[C@H]7OC(=O)/C=C/c7ccc(O)cc7)[C@H]6O[C@@H]6O[C@@H](CO)[C@H](O)[C@H]6O)C(C)(C)[C@@H]5CC[C@@]4(C)[C@@]34CO[C@@]2(C4)O1 | – | 50 (≈ 47.8 µM)
CC(C)=C[C@H]1C[C@](C)(O)[C@@H]2[C@H]3CC[C@@H]4[C@@]5(C)CC[C@H](O[C@@H]6OC[C@H](O)[C@H](O[C@@H]7O[C@H](CO)[C@@H](O)[C@H](OC(=O)/C=C/c8ccc(O)cc8)[C@H]7O)[C@H]6O[C@@H]6O[C@@H](CO)[C@H](O)[C@H]6O)C(C)(C)[C@@H]5CC[C@@]4(C)[C@@]34CO[C@@]2(C4)O1 | – | 10 (≈ 9.57 µM)
